Results from BigSolDB 2.1.

O=C1c2cccc(Cl)c2C(=O)N1c1ccccc1
solubility (mole fraction)
Conditions | in 1,4-dioxane | in acetic acid | in acetone | in acetonitrile | in ethyl acetate | in isobutanol | in isopropanol | in methanol | in n-butanol | in n-propanol
288.15 K | 0.00825 | 0.000923 | 0.00298 | 0.00196 | 0.0021 | 0.000116 | 7.27e-05 | 0.000147 | 0.000183 | 0.000162
290.65 K | 0.00898 | 0.00104 | 0.00324 | 0.00216 | 0.00232 | 0.000128 | 8.36e-05 | 0.000171 | 0.000204 | 0.000187
293.15 K | 0.00979 | 0.00116 | 0.00358 | 0.00236 | 0.00255 | 0.000149 | 9.82e-05 | 0.000194 | 0.000234 | 0.000226
295.65 K | 0.0107 | 0.0013 | 0.00392 | 0.00258 | 0.00284 | 0.000167 | 0.000111 | 0.00022 | 0.000266 | 0.000266
298.15 K | 0.0115 | 0.00145 | 0.00429 | 0.0028 | 0.00315 | 0.000189 | 0.000132 | 0.000249 | 0.000308 | 0.000311
300.65 K | 0.0125 | 0.00159 | 0.00468 | 0.00305 | 0.00347 | 0.000221 | 0.000151 | 0.00028 | 0.000345 | 0.000353
303.15 K | 0.0134 | 0.00175 | 0.00505 | 0.00332 | 0.0038 | 0.000258 | 0.000178 | 0.000308 | 0.000388 | 0.000411
305.65 K | 0.0145 | 0.00189 | 0.00551 | 0.00361 | 0.00412 | 0.000296 | 0.000208 | 0.000339 | 0.000432 | 0.000468
308.15 K | 0.0158 | 0.00206 | 0.00597 | 0.00397 | 0.00448 | 0.000341 | 0.000237 | 0.000381 | 0.000478 | 0.000527
310.65 K | 0.0171 | 0.00225 | 0.00654 | 0.0043 | 0.00484 | 0.000392 | 0.000268 | 0.000428 | 0.000535 | 0.000593
313.15 K | 0.0188 | 0.00248 | 0.00718 | 0.0047 | 0.00525 | 0.000457 | 0.000305 | 0.000478 | 0.000597 | 0.000668
315.65 K | 0.0204 | 0.00273 | 0.00779 | 0.00514 | 0.00568 | 0.000526 | 0.000345 | 0.000533 | 0.000665 | 0.000747
318.15 K | 0.0224 | 0.00299 | 0.00851 | 0.00553 | 0.00617 | 0.000599 | 0.000387 | 0.00059 | 0.00074 | 0.00083
320.65 K | 0.0243 | 0.00328 | 0.00919 | 0.00603 | 0.00669 | 0.000679 | 0.000445 | 0.000656 | 0.000821 | 0.000917
323.15 K | 0.0266 | 0.00364 | 0.00995 | 0.00655 | 0.00734 | 0.000762 | 0.00053 | 0.000745 | 0.000908 | 0.00103
